Among the data in ChEMBL document CHEMBL3045594, “Synthesis and evaluation of substituted 5-(3-chloro-2-oxo-4-phenylazetidin-1-ylamino)pyrimidine-2,4,6(1H,3H,5H)-triones against pentylenetetrazole-induced convulsant in mice” (Med Chem Res, 2012) are Activity and mortality values, retold here.

Molecules are shown by their SMILES.

Data set [1] deals with Mus musculus. As to the kind of experiment: Anticonvulsant activity in Mus musculus (mouse) subcutaneous PTZ-induced seizure assessed as malondialdehyde level at 20 mg/kg, ip administered 30 min before PTZ challenge by TBARS assay. The format is functional.
Data set [2] relates to Mus musculus. As to the kind of experiment: Anticonvulsant activity in Mus musculus (mouse) subcutaneous PTZ-induced seizure assessed as carbonyl protein level at 40 mg/kg, ip administered 30 min before PTZ challenge. The class given is functional.
In data set [3] the test system is Mus musculus. As to the kind of experiment: Anticonvulsant activity in Mus musculus (mouse) subcutaneous PTZ-induced seizure assessed as reduced nitrite level per mg of protein at 40 mg/kg, ip administered 30 min before PTZ challenge by Griess reaction. The format is functional. A general note: The Griess reaction detects nitrite, a stable product of nitric oxide.

The test system of data set [4] is Mus musculus. As to the kind of experiment: Anticonvulsant activity in Mus musculus (mouse) subcutaneous PTZ-induced seizure assessed as reduced glutathione level per mg of protein at 40 mg/kg, ip administered 30 min before PTZ challenge by Ellman method. The class given is functional.
In data set [5] the test system is Mus musculus. Nature of the data set: Anticonvulsant activity in Mus musculus (mouse) subcutaneous PTZ-induced seizure assessed as malondialdehyde level at 40 mg/kg, ip administered 30 min before PTZ challenge by TBARS assay. The class given is functional.
In data set [6] the test system is Mus musculus. As to the kind of experiment: Anticonvulsant activity in Mus musculus (mouse) assessed as protection against subcutaneous PTZ-induced seizure at 40 mg/kg, ip administered 30 min before PTZ challenge. The class given is functional.
Data set [7] relates to Mus musculus. Nature of the data set: Anticonvulsant activity in Mus musculus (mouse) assessed as protection against subcutaneous PTZ-induced seizure at 20 mg/kg, ip administered 30 min before PTZ challenge. The format is functional.
Data set [8] is described as follows: Acute toxicity in Mus musculus (mouse) assessed as mortality at 1000 mg/kg, ip. To be noted: in vivo, read-out: Activity. The format is organism-based. Details: dose 1000 mg/kg, route intraperitoneal.
Data set [9] deals with Mus musculus. Nature of the data set: Acute toxicity in Mus musculus (mouse) assessed as behavioral changes at 1000 mg/kg, ip. The format is organism-based. Details: dose 1000 mg/kg, route intraperitoneal. Particulars: in vivo.
In data set [10] the test system is Mus musculus. As to the kind of experiment: Acute toxicity in Mus musculus (mouse) at 100 to 200 mg/kg, ip. To be noted: in vivo. The class given is organism-based. Details: dose 100-200 mg/kg, route intraperitoneal.
The subject of data set [11] is Mus musculus. Nature of the data set: Anticonvulsant activity in Mus musculus (mouse) subcutaneous PTZ-induced seizure assessed as carbonyl protein level at 20 mg/kg, ip administered 30 min before PTZ challenge. The format is functional.
In data set [12] the test system is Mus musculus. Nature of the data set: Anticonvulsant activity in Mus musculus (mouse) subcutaneous PTZ-induced seizure assessed as reduced nitrite level per mg of protein at 20 mg/kg, ip administered 30 min before PTZ challenge by Griess reaction. The class given is functional.
Data set [13] relates to Mus musculus. As to the kind of experiment: Anticonvulsant activity in Mus musculus (mouse) subcutaneous PTZ-induced seizure assessed as reduced glutathione level per mg of protein at 20 mg/kg, ip administered 30 min before PTZ challenge by Ellman method. The format is functional. On the technique in general: Ellman's reagent forms a yellow product with free thiols.
Data set [14] relates to Mus musculus. Nature of the data set: Anticonvulsant activity in Mus musculus (mouse) subcutaneous PTZ-induced seizure assessed as carbonyl protein level at 80 mg/kg, ip administered 30 min before PTZ challenge. The class given is functional.
For data set [15], the system named is Mus musculus. As to the kind of experiment: Anticonvulsant activity in Mus musculus (mouse) subcutaneous PTZ-induced seizure assessed as reduced nitrite level per mg of protein at 80 mg/kg, ip administered 30 min before PTZ challenge by Griess reaction. The class given is functional.
Data set [16] deals with Mus musculus. Nature of the data set: Anticonvulsant activity in Mus musculus (mouse) subcutaneous PTZ-induced seizure assessed as reduced glutathione level per mg of protein at 80 mg/kg, ip administered 30 min before PTZ challenge by Ellman method. The class given is functional.
For data set [17], the system named is Mus musculus. As to the kind of experiment: Anticonvulsant activity in Mus musculus (mouse) subcutaneous PTZ-induced seizure assessed as malondialdehyde level at 80 mg/kg, ip administered 30 min before PTZ challenge by TBARS assay. The format is functional.
Data set [18] deals with Mus musculus. As to the kind of experiment: Anticonvulsant activity in Mus musculus (mouse) assessed as protection against subcutaneous PTZ-induced seizure at 80 mg/kg, ip administered 30 min before PTZ challenge. The format is functional.

Consider `O=C1NC(=O)C(NN2C(=O)C(Cl)C2c2ccccc2)C(=O)N1` (centres undefined), for which the Activity in data set [1] was determined as 48.36 nmol/mg; in data set [2], 29.61 nmol/mg; in [3], 0.48 µmol; in data set [4], 0.036 µmol; in data set [5], 44.04 nmol/mg; in data set [6] it was 16%. The Activity in [7] is 16%; in data set [9], “Toxic”; in [10], “Non-toxic”; in [11], 30.74 nmol/mg; in data set [12], 0.46 µmol; in data set [13] it was 0.031 µmol. In addition, the mortality in data set [8] came out at 70%.
`COc1ccc(C2C(Cl)C(=O)N2NC2C(=O)NC(=O)NC2=O)cc1` (centres undefined): the Activity stood at 47.11 nmol/mg in data set [1]; 25.94 nmol/mg in data set [2]; 0.49 µmol in [3]; 0.047 µmol in data set [4]; 42.91 nmol/mg in data set [5]; 66% in data set [6]. The Activity in data set [7] is 33%; in data set [9], “Toxic”; in [10] it was “Non-toxic”; in data set [11], 27.53 nmol/mg; in data set [12], 0.47 µmol; in [13], 0.043 µmol. For the same molecule, the mortality in [8] was 70%.
With `COc1cc(C2C(Cl)C(=O)N2NC2C(=O)NC(=O)NC2=O)ccc1O` (centres undefined), the Activity was 35.19 nmol/mg in data set [1]; 20.48 nmol/mg in [2]; 0.54 µmol in data set [3]; 0.084 µmol in data set [4]; 30.68 nmol/mg in [5]; 83% in data set [6]. Besides, the Activity was 66% in data set [7]; “Toxic” in data set [9]; “Non-toxic” in [10]; 21.68 nmol/mg in data set [11]; 0.53 µmol in [12]; 0.081 µmol in data set [13]. Also, in data set [8], the mortality was 70%.
As for `CCCC(CCC)C(=O)[O-].[Na+]` [VALPROATE SODIUM], the Activity in data set [14] was 19.06 nmol/mg; in [15] it was 0.54 µmol; in [16] it was 0.089 µmol; in data set [17] it was 28.13 nmol/mg; in data set [18] it was 100%.
